Data as given in patent US20150118222A1, “TREATMENT USING BRUTON'S TYROSINE KINASE INHIBITORS AND IMMUNOTHERAPY” (Pharmacyclics, Inc., priority 2013, published 2015).
Where two headings read alike, the source gives them in different places.

What was measured:
A20 = assay: IC50 of ibrutinib in A20 mouse lymphoma cells (FIG. 19B); assay type: cell-based; settings: read-out: IC50 of ibrutinib, FIG. 19 Panel B
CT26 cells [1] = assay: CT26 colon cancer mouse model (Example 8); assay type: in vivo, BALB/c mice; settings: CT26 colon carcinoma line
4T1-Luc cells = settings: 4T1, model of triple negative breast cancer
CT26 cells [2] = tested on: CT26 cells

IC50 (A20): > 10 µM
Compound: C=CC(=O)N1CCC[C@@H](n2nc(-c3ccc(Oc4ccccc4)cc3)c3c(N)ncnc32)C1 [ibrutinib, 1-((R)-3-(4-amino-3-(4-phenoxyphenyl)-1H-pyrazolo[3,4-d]pyrimidin-1-yl)piperidin-1-yl)prop-2-en-1-one]
sensitivity of the CT26 cell line to ibrutinib (CT26 cells [1]): not sensitive | sensitivity of the 4T1 cell line to ibrutinib (4T1-Luc cells): not sensitive | sensitivity of the CT26 cell line to ibrutinib (CT26 cells [2]): not sensitive
